Here are results for one molecule from patent US6667153B1 (priority 2000, dated 2003).

Data set [1] relates to E. coli GW2100/pTJgfp (umuC'::gfp). Particulars: nutrient broth, FIG. 3.
The test system of data set [2] is arg-3 marker in E. coli strain GW2100/pTJgfp. The conditions noted are these: for Mean revertant colony numbers: 37 parallel cultures, 4 day plate incubation.
Data set [3] has as its system E. coli GW2100/pTJgfp (umuC'-gfp fusion). Particulars: for Mean fluorescence emission: 24 hours incubation.

Read-outs that look alike come from different tables or passages of the source.

`COS(C)(=O)=O` [MMS, methylmethane sulphonate]: the “fluorescence level compared with the 0 dose control” value in data set [1] (MMS 13 μg/ml) is given as “no significant difference”; in data set [1] (MMS 325 and 650 μg/ml), “dose-dependent manner”. Moreover, the “fluorescence level (cellular toxicity)” value in data set [1] (MMS 1300 μg/ml) was “lower level of fluorescence”. Further, the results for the “K.S statistic, revertant colony numbers, mutagen versus the control” value in data set [2] (MMS 13 μg/ml) and in data set [2] (MMS 325 μg/ml) were 2.711 and 3.889, respectively. The “Mean revertant colony numbers” value in data set [2] (MMS 13 μg/ml) is 8.84; in data set [2] (MMS 325 μg/ml), 17.95. In addition, the “mutagenicity through change in culture to culture variation in mutant numbers (mean unchanged)” value in data set [2] (MMS 13 μg/ml, FIG. 8) was “mutagenicity is still detectable”. The “response in mean number of revertant colonies per culture sample” value in data set [2] (MMS 325 μg/ml, FIG. 8) was “clearly positive result”. Also, the “K.S statistic, fluorescence emission, mutagen versus the control” value in data set [3] (MMS 13 μg/ml) is 3.09; in data set [3] (MMS 325 μg/ml) it was 6.48. The Mean fluorescence emission in data set [3] (MMS 13 μg/ml, 84 parallel cultures) is given as 13.22; in data set [3] (MMS 325 μg/ml, 84 parallel cultures), 36.5. For the same molecule, the “mutagenic activity by shift in mean fluorescent output per culture” value in data set [3] (MMS 325 μg/ml, 84 parallel cultures, FIG. 10) is on record as “pronounced”.
